Like-named read-outs stand apart in the source and are kept apart here.
Legend:
HEK293F cells [1] = assay: Transient gene expression in HEK293F cells: cell specific productivity of the expressed antibody; type: cell-based, human; conditions: for specific productivity after 96 hours: none 2.01; for activity at 0.015 µM: 15 nM; for Mean cell specific productivity: untreated 1.71; for TGE enhancement after BAY11-7082 treatment compared to the corresponding single treatment: BAY11-7082 added 24 hours after stimulation
Protocol: HEK293F cells were cultivated in F17 medium (Life Technologies) in shaker flasks at 36.5° C., 7.0% CO2 and 80% humidity in a shaker incubator (Kuhner, Mytron). Cells were split every three to four days and were cultivated no longer than five weeks. To avoid overgrowth and to keep them in the exponential phase of growth, viable cell densities (VCD) never exceeded 60*10^5 cells/mL.
(§1) Transient gene expression is a 5-7 days lasting procedure. The standard operating procedure of this expression system is applicable to shaker flasks with various volumes of cell culture ranging from 80 mL to 2 L. First, half of the cell culture volume is seeded at a viable cell density (VCD) of 8*10^5 cells/mL. After two days of cultivation, cells are split to a VCD of about 12*10^5 cells/mL. On the next day, cells are transfected with a polyethylene imine (PEI)-based transfection reagent at a VCD between 20*10^5 cells/mL and 25*10^5 cells/mL. 3 hours after transfection, the production enhancer (if any) is added. 24 h after transfection, a feeding solution and a glucose bolus is supplemented to avoid the limitation of nutrients. Depending on cell viability, which should not decrease below 50%, the supernatant is harvested five to seven days post transfection and subjected to antibody purification.
(§2) To compare transient gene expression rates always the same plasmids encoding for one distinct antibody were co-transfected.
(§3) To co-transfect two plasmids equimolarily, the ratio of the base pair number of one plasmid to the total base pair number was calculated and multiplied with the total amount of DNA (0.5 mg/L). Plasmid one has a size of 10530 bp and plasmid two has a size of 7184 bp and were solved in water to a final concentration of 1 mg/mL. For transfection of one liter cell culture, 297 μL of plasmid one and 203 μl of plasmid two were dissolved in 40 mL phosphate buffered saline (PBS) at room temperature. 1.25 mL JetPEI® solution was added and the solution was mixed well. After incubation for 10-15 min., the mixture was added to the cells. The cells were transfected in a batch containing the whole cell culture necessary for every experiment to avoid variance arising from different transfection efficiencies.
(§4) 80 mL of the transfected cell culture batch was added to a 125 ml shaker flask. For every experiment, two or three 125 mL shaker flasks were used as biological replicates and treated the same way. Three hours after transfection, cells were split into 125 mL shaker flasks and the cellular treatments with small molecules or ligands were started. Basal protein expression was determined by untreated control samples. To compare samples with the standard operating procedure, cells were also treated with VPA to a final concentration of 4 mM or 3 mM. VPA and its analogues were dissolved in double distilled water. […] Tumor necrosis factor (TNF) alpha was reconstituted with PBS supplemented with 0.1% BSA. Flagellin was dissolved in sterile double distilled water. The applied molecules were not added to the cultivation directly, but diluted in 16 mL medium pre-warmed to 36.5° C. and added to the cultivation thereafter.
(§5) 24 h after transfection a feeding solution at 36.5° C. and 3 mg/mL glucose were added to the cultivation.
(§6) To determine cell viability and viable cell density (VCD) 1 mL cultivation medium (cell suspension) was transferred into a Cedex low fouling sample cup. The cup was placed into a Vicell instrument (Beckman Coulter). The instrument mixes cells with trypan blue to stain dead cells. After analysis of 50 images VCD was calculated and viability was determined by calculation of the percentage of viable cell number in relation to the total cell number.
Total concentration of the transiently expressed antibody was determined by a turbidimetric test. One mL cell suspension was transferred into an Eppendorf cup and centrifuged for 10 min. at 10,000 rpm (9,300 g).

HDAC [2] = conditions: cited from earlier work
HEK293F cells [3] = assay: Transient gene expression in HEK293F cells: IgG concentration / titer (turbidimetric test); type: cell-based, human; conditions: none=100, N=1, FIG. 7
Protocol: as §1, §2, §3, §4, §5
Total concentration of the transiently expressed antibody was determined by a turbidimetric test. One mL cell suspension was transferred into an Eppendorf cup and centrifuged for 10 min. at 10,000 rpm (9,300 g). The supernatant was transferred into a new cup and subjected to Cobas Integra 400 plus (Roche) analysis. With comparison to internal standard the absolute concentration was calculated.

HEK293F cells [4] = type: cell-based; conditions: in words
Protocol: as §6

HDAC [5] = assay: in situ HDAC activity fluorimetric assay in HEK293F cells; type: cell-based, human; conditions: for HDAC inhibition: yes/no, summary table
Protocol: HDAC activity was determined by the in situ HDAC activity fluorimetric assay kit (Biovision) according to the manufacturer's instructions. HEK293F cells were suspended in F17 medium (Life Technologies) to a cell density of 5*10^5 cells/mL. One hundred micro liter culture was pipetted per well into a black ELISA plate. The plate was centrifuged at 1000 g for 5 min. The supernatant was discarded and the cells were resuspended in a reaction mix containing F17 medium, 1% HDAC substrate and the molecule tested towards HDAC inhibitory activity. 10 μM Trichostatin A was used as a positive control and the basal HDAC activity was determined by re-suspending the cells in F17 medium with 1% HDAC substrate. Furthermore, cells were resuspended in F17 medium without HDAC substrate as a background control. The HDAC activity assay was performed in triplicates for every sample as well as every control. The 96-well plate was incubated at 36.5° C., 80% humidity and 7% CO2 for one hour. During this time, the active HDACs deacetylate the HDAC substrate what releases the quenched fluorescent signal of the substrate. After incubation the fluorescent signal was analyzed by the infinite fluorescence plate reader (TECAN). The fluorescence signal of the samples and controls was normalized by subtracting the fluorescence signal of the background control. It is assumed that the fluorescent signal arising from deacetylation of the substrate directly correlates with HDAC activity.

[6] = description from the literature
[7] = 50 ng/mL, none=100, N=2, FIG. 5

Compound: Cc1ccc(S(=O)(=O)/C=C/C#N)cc1 [BAY 11-7082, BAY11-7082]
- specific productivity after 96 hours (HEK293F cells [1]; 1 μM alone, N=3): 2.21 pg/cell/day
- specific productivity after 96 hours (HEK293F cells [1]; 5 μM alone, N=3): 2.30 pg/cell/day
- specific productivity after 96 hours (HEK293F cells [1]; 15 μM alone, N=3): 2.27 pg/cell/day
- duration of the effect (HEK293F cells [1]; NFκB (IκB kinase) inhibition in transfected HEK293F cells): about 4 days

Compound: O=C(/C=C/c1cccc(S(=O)(=O)Nc2ccccc2)c1)NO [Belinostat]
- activity at 1 µM (HEK293F cells [1]; Homo sapiens, HEK293F, employed concentration 1 μM, none=100, N=2, FIG. 2B, read-out: relative cell specific productivity): 115%

Compound: CCCCOc1ccc(CC(=O)NO)cc1 [Bufexamac]
- activity at 10 µM (HEK293F cells [1]; Homo sapiens, HEK293F, employed concentration 10 μM, none=100, N=1, FIG. 2B, read-out: relative cell specific productivity): 94%
- HDAC class / isoform selectivity (HDAC [2]; [6]): selective class IIb HDAC inhibitor

Compound: Nc1ccccc1NC(=O)c1ccc(CNC(=O)OCc2cccnc2)cc1 [Entinostat]
- activity at 0.3 µM (HEK293F cells [1]; Homo sapiens, HEK293F, employed concentration 300 nM, none=100, N=2, FIG. 2B, read-out: relative cell specific productivity): 108%
- HDAC class / isoform selectivity (HDAC [2]; [6]): class I HDAC inhibitor with additional inhibitory activity to class IIa member HDAC 9

Compound: Nc1ccccc1NC(=O)c1ccc(CNc2nccc(-c3cccnc3)n2)cc1 [Mocetinostat]
- activity at 2 µM (HEK293F cells [1]; Homo sapiens, HEK293F, employed concentration 2 μM, none=100, N=2, FIG. 2B, read-out: relative cell specific productivity): 135%
- HDAC class / isoform selectivity (HDAC [2]; [6]): lowest IC50 values for HDAC 1 and 2 and modest inhibitory activity against HDAC 3 and HDAC 11

Compound: COc1ccc(Cn2ccc3ccc(C(=O)NO)cc32)cc1 [PCI34051]
- relative IgG concentration (HEK293F cells [3]; 5 μM): 99%
- HDAC class / isoform selectivity (HDAC [2]; [6]): HDAC 8-specific inhibitor

Compound: CCCCCCCCCCCCCC(=O)O[C@@H]1[C@@H](C)[C@@]2(O)[C@@H](C=C(CO)C[C@]3(O)C(=O)C(C)=C[C@@H]23)[C@@H]2C(C)(C)[C@]12OC(C)=O [PMA, phorbol myristate acetate]
- activity at 0.1 µM (HEK293F cells [1]; Homo sapiens, HEK293F, 100 nM, none=100, N=2, FIG. 5, read-out: relative cell specific productivity): 149%

Compound: Nc1cc(F)ccc1NC(=O)/C=C/c1cnn(C/C=C/c2ccccc2)c1 [RGFP966]
- relative IgG concentration (HEK293F cells [3]; 1 μM): 103%
- HDAC class / isoform selectivity (HDAC [2]; [6]): specific HDAC 3 inhibitor

Compound: C/C=C1\NC(=O)[C@H]2CSSCC/C=C/[C@H](CC(=O)N[C@H](C(C)C)C(=O)N2)OC(=O)[C@H](C(C)C)NC1=O [Romidepsin]
- activity at 0.015 µM (HEK293F cells [1]; Homo sapiens, HEK293F, none=100, N=3, FIG. 8A, read-out: relative cell specific productivity): 203%
- activity at 0.015 µM (HEK293F cells [1]; Homo sapiens, HEK293F, none=100, N=3, FIG. 9A, read-out: relative cell specific productivity): 203%
- toxicity (HEK293F cells [4]): mild toxicity

Compound: O=C(NCC1(c2nc(-c3ccccc3)cs2)CCOCC1)c1cccc(-c2noc(C(F)(F)F)n2)c1 [TMP269]
- relative cell specific productivity (HEK293F cells [1]; employed concentration 15 μM, none=100, N=2, FIG. 2B): 99%
- HDAC class / isoform selectivity (HDAC [2]; [6]): preference to class IIa HDACs 4, 5, 7, and 9

Compound: CC(/C=C/C(=O)NO)=C\[C@@H](C)C(=O)c1ccc(N(C)C)cc1 [Trichostatin A]
- HDACi (HDAC [5]): 99%

Compound: CCC(=O)CCCCC[C@@H]1NC(=O)[C@H]2CCCCN2C(=O)[C@H]([C@@H](C)CC)NC(=O)[C@H](Cc2cn(OC)c3ccccc23)NC1=O [apicidin, Apicidin]
- relative IgG concentration (HEK293F cells [3]; 200 nM): 182%

Compound: C=C(C)[C@@H]1CC[C@]2(C(=O)O)CC[C@]3(C)[C@H](CC[C@@H]4[C@@]5(C)CC[C@H](O)C(C)(C)[C@@H]5CC[C@]43C)[C@@H]12 [betulinic acid]
- activity at 10 µM (HEK293F cells [1]; Homo sapiens, HEK293F, 10 μM, none=100, N=2, FIG. 5, read-out: relative cell specific productivity): 121%

Compound: Cc1ccc(NC(=O)CCCCCC(=O)Nc2ccccc2N)cc1 [pimelic diphenylamide 106]
- activity at 20 µM (HEK293F cells [1]; Homo sapiens, HEK293F, 20 μM, transfected control=100, N=3, FIG. 3B, read-out: relative cell specific productivity): 171%
- activity at 20 µM (HEK293F cells [1]; Homo sapiens, HEK293F, employed concentration 20 μM, none=100, N=2, FIG. 2B, read-out: relative cell specific productivity): 160%
- Mean cell specific productivity (HEK293F cells [1]; conc. 20 μM): 5.4 (20 μM) pg/cell/24 h
- HDACi (HDAC [5]; 20 μM, N=3, FIG. 3A): 22.6%
- HDAC inhibition (HDAC [5]): yes
- HDAC selectivity (HDAC [2]; HDAC classes, summary table): Class I
- HDAC class / isoform selectivity (HDAC [2]; [6]): class I HDAC inhibitor with highest affinity towards HDAC 1 and 3, high affinity towards HDAC 2 and modest affinity towards HDAC 8

Compound: CCC(C)C(CC)C(N)=O (centres unmarked) [valnoctamide]
- TGE enhancement (HEK293F cells [1]; 2 mM, in words): Weak TGE enhancement
- activity at 3000 µM (HEK293F cells [1]; Homo sapiens, HEK293F, 3 mM, transfected control=100, N=3, FIG. 3B, read-out: relative cell specific productivity): 122%
- activity at 2000 µM (HEK293F cells [1]; Homo sapiens, HEK293F, employed concentration 2 mM, none=100, N=2, FIG. 4, read-out: relative cell specific productivity): 133%
- activity at 3000 µM (HEK293F cells [1]; Homo sapiens, HEK293F, employed concentration 3 mM, none=100, N=2, FIG. 4, read-out: relative cell specific productivity): 125%
- Mean cell specific productivity (HEK293F cells [1]; conc. 3 mM): 1.71 (3 mM) pg/cell/24 h
- Effect on titer/SPR (HEK293F cells [1]; summary table, in words): weak
- HDACi (HDAC [5]; 3 mM, N=3, FIG. 3A): 11.1%
- HDAC inhibition (HDAC [5]): no

Compound: CCC(C)C(CC)C(=O)O (centres unmarked) [valnoctic acid]
- HDAC inhibitory activity (HDAC [2]; [6]): weak HDAC inhibitory activity

Compound: EGF: epidermal growth factor, NFκB activator
- specific productivity after 96 hours (HEK293F cells [1]; 20 ng/mL, single treatment, N=3): 2.56 pg/cell/day
- relative cell specific productivity (HEK293F cells [1]; [7]): 173%
- TGE enhancement after BAY11-7082 treatment compared to the corresponding single treatment (HEK293F cells [1]): significantly reduced

Compound: TNFalpha
- relative cell specific productivity (HEK293F cells [1]; [7]): 139%
- specific productivity after 96 hours (HEK293F cells [1]; 50 ng/mL, single treatment, N=3): 2.66 pg/cell/day
- relative cell specific productivity (HEK293F cells [1]; 50 ng/mL, single treatment, none=100, N=3): 157%
- TGE enhancement after BAY11-7082 treatment compared to the corresponding single treatment (HEK293F cells [1]): significantly reduced
